Data published in the NIST ThermoML archive (doi:10.1016/j.jct.2016.12.034).

Conditions: Crystal; for vapor or sublimation pressure: Transpiration method

CC(=O)Nc1ccc(/C=N/NC(N)=S)cc1 [Thioacetazone]
Conditions	Normal melting temperature [°C]	vapor or sublimation pressure [kPa]
404.15 K	–	1.89e-05
406.15 K	–	2.23e-05
408.15 K	–	2.81e-05
410.15 K	–	3.67e-05
412.15 K	–	4.46e-05
415.15 K	–	6.04e-05
417.15 K	–	7.03e-05
420.15 K	–	0.0001125
423.15 K	–	0.0001414
425.15 K	–	0.0001651
427.15 K	–	0.0002376
429.15 K	–	0.0002851
DTA	229.00	–
